Experiments:
Vero cell cultures = experiment: Cytotoxicity in Vero cell cultures; type: cell-based; settings: Vero cells; values given as fractions, footnote a not given
Text: (§1) In the following is reported the results from a Vero cell culture infected with different viruses. The cell culture used as well as the methods applied are well known to a person skilled in the art.

Coxsackie virus B4 = experiment: Antiviral activity in Vero cell cultures; type: cell-based; settings: Vero cells; values given as fractions
Procedure: (§2) IC50 values are determined by the virus plaque formation and/or the virus cytopathic assay using standard methods well-known in the art.
as §1

Parainfluenza-3 Virus = experiment: Antiviral activity in Vero cell cultures; type: cell-based; settings: Vero cells; values given as fractions
Procedure: as §2, §1

Reovirus-1 = experiment: Antiviral activity in Vero cell cultures; type: cell-based; settings: Vero cells; values given as fractions
Procedure: as §2, §1

Simliki forest virus = experiment: Antiviral activity in Vero cell cultures; type: cell-based; settings: Vero cells; values given as fractions
Procedure: as §2, §1

Sindbis virus = experiment: Antiviral activity in Vero cell cultures; type: cell-based; settings: Vero cells; values given as fractions
Procedure: as §2, §1

[1] = system: cytomegalovirus AD-169 strain; experiment: Activity against cytomegalovirus in HEL cells (plaque formation); type: cell-based; settings: virus plaque formation reduced by 50%, 100 PFU, values given as fractions
Procedure: as §2

[2] = system: cytomegalovirus Davis strain; experiment: as above; type: cell-based; settings: virus plaque formation reduced by 50%, 100 PFU, values given as fractions
Procedure: as §2

[3] = system: human embryonic lung (HEL) cells; experiment: Cytotoxicity in human embryonic lung (HEL) cells; type: cell-based; settings: HEL cell growth reduced by 50%; values given as fractions
[4] = molecular target: T1, Helicobacter pylori fumarate reductase (Helicobacter pylori, UniProt O06913); type: biochemical; settings: at concentration of 0.2 mM
T1 construct: Membrane associated proteins were solubilized from the pellet in 150 mM KCl, pH 7.0; endogenous in cells; host or cells: Helicobacter pylori 007 strain; KCl-solubilised fraction (or sonicate supernatant)
T1 sequence (O06913 1-714): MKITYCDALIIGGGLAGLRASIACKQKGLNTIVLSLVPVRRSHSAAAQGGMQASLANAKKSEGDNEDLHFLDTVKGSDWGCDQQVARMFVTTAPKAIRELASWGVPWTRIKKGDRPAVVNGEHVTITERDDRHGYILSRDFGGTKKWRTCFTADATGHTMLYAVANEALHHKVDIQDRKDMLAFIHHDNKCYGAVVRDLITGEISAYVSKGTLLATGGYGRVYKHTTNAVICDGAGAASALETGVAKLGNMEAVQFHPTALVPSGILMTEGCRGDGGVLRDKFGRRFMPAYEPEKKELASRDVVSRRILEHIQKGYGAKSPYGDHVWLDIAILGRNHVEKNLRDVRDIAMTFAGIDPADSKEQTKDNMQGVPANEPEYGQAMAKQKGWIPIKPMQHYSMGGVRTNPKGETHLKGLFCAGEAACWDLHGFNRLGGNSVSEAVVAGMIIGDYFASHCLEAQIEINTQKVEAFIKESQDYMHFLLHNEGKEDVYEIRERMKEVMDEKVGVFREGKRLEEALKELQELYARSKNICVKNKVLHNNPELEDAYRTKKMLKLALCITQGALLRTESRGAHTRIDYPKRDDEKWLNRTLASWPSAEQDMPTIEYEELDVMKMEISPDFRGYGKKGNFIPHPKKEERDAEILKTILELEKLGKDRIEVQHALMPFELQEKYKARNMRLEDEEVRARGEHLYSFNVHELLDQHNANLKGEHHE
T1 sequence (O06914 1-245 partner): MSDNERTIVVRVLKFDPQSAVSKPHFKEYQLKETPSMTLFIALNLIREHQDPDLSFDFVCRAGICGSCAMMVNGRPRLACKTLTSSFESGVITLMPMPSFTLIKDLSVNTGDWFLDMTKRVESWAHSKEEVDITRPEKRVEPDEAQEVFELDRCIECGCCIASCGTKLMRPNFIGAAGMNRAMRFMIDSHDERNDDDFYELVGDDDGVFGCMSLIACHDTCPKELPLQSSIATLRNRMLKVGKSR
T1 sequence (O06912 1-255 partner): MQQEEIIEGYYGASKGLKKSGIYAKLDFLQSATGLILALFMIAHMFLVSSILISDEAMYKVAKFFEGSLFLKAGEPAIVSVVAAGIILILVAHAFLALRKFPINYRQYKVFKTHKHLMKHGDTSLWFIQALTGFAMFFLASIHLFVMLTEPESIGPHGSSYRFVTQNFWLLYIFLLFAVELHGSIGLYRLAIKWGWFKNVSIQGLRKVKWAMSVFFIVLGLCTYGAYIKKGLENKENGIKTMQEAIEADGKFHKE
Procedure: 1) Extraction of soluble FRD: Bacteria were harvested by centrifugation at 18,000 g for 10 min at 4° C., and were washed 2 times in an isotonic phosphate saline buffer (50 mM sodium phosphate, pH 7.2, 90 mM NaCl, 5 mM Kcl). Bacteria were lysed in 5 mM Tris-HCl, pH 7.4, for 15 minutes, and centrifuged 18,000 g for 10 minutes. Membrane associated proteins were solubilized from the pellet in 150 mM KCl, pH 7.0, in ice bath for 60 min, and then the supernatant was collected after centrifugation (18,000 g for 10 minutes) for the measurement of FRD activity.
2) Extraction of FRD by sonication: Bacteria were harvested by centrifugation at 18,000 g for 10 min at 4° C., were sonicated, and then the supernatant was collected after centrifugation (18,000 g for 10 minutes) for the measurement of FRD activity.
NADH-FRD activity was determined as the rate of NADH-oxidation upon addition of 1 mM fumarate in the KCl-solubilized fraction or sonicated fraction. The reaction was monitored spectrophotometrically at 340 nm (∈=6.2 mM^−1 cm^−1) using 100 μM NADH and usually 3 mg protein in both reference and sample cuvettes. The measurement was carried out in a Shimadzu UV-190 double-beam spectrophotometer. Protein concentrations were determined using a Bio-Rad protein assay (Bio-Rad Laboratories, 200 Alfred Nobel Dr. Hercules, Calif. 94547, USA).
KCl solubilised fraction of bacteria was incubated with different concentrations of various oxygenated chalcones at 28° C. and the remaining FRD activity was measured. The IC50 values were determined as the concentration at which 50% of the activity was inhibited.

[5] = Preliminary 14 days oral toxicity study in rats; type: in vivo; settings: highest dose level 1000 mg/kg/day
Procedure: A preliminary 14 days oral toxicity study in rats was carried out with 6 compounds. Observations included clinical signs, body weights, food intake, haematology, clinical chemistry and macroscopic pathology.

Leishmania promastigotes = Leishmania promastigotes Assay; type: cell-based; settings: Leishmania; promastigotes, 3H-thymidine uptake; read-out: Leishmania IC50 ± SD
How it was run: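 L. major (WHO Iran vaccine strain) and L. donovani MHOM/KE/85/NLB 274 promastigotes (3×10^6/ml, day 3 and 6 cultures) exposed to compound 2 h at 26 °C, then 3H-thymidine 18 h; incorporation counted by scintillation. Microscopic counts and flagellar motility also assessed.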

human lymphocytes = experiment: Lymphocyte Proliferation Assay; type: cell-based; settings: Lymphocyte; PHA provoked proliferation of human lymphocytes; read-out: Lymphocytes IC50 ± SD
How it was run: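 Ficoll-isolated human blood mononuclear cells (0.63×10^5/ml) in RPMI 1640 with 5% FCS were cultured in triplicate with test compound and PHA or PPD for 3 or 7 days. Proliferation measured by ^3H-thymidine incorporation over the final 24 h; triplicate median recorded.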

Plasmodium falciparum = Plasmodium falciparum Assay; type: cell-based; settings: Plasmodium falciparum; 3-H-hypoxanthine incorporation, 48 hours; read-out: Plasmodium IC50 ± SD
How it was run: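 Parasitized erythrocytes (~1% parasitemia, 5×10^8/ml) cultured 48 h in RPMI with test compound, with 3H-hypoxanthine added for the last 24 h. Growth inhibition read as 3H-hypoxanthine incorporation into parasite DNA by liquid scintillation; uninfected and untreated infected cultures run in parallel.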

| Compound | Minimum Cytotoxic Concentration (Vero cell cultures) | Minimum inhibitory concentration, Coxsackie virus B4 (Coxsackie virus B4) | Minimum inhibitory concentration, Parainfluenza-3 Virus (Parainfluenza-3 Virus) | Minimum inhibitory concentration, Reovirus-1 (Reovirus-1) | Minimum inhibitory concentration, Simliki forest virus (Simliki forest virus) | Minimum inhibitory concentration, Sindbis virus (Sindbis virus) | Antiviral activity IC50, AD-169 strain, Assay 1 [1] | Antiviral activity IC50, Davis strain, Assay 1 [2] | Cytotoxicity CC50 [3] | activity of NADH-fumarate reductase [4] | toxic effects [5] | IC50 (Leishmania promastigotes) | IC50 (human lymphocytes) | IC50 (Plasmodium falciparum) |
| --- | --- | --- | --- | --- | --- | --- | --- | --- | --- | --- | --- | --- | --- | --- |
| C=CCOc1ccc(C(=O)/C=C/c2cccc(OC)c2OC)cc1 [2,3m4′ac] | <1/100 | <1/100 | <1/100 | <1/100 | <1/100 | <1/100 | <1/30 | <1/30 | <1/30 |  |  |  |  |  |
| C=CCOc1ccc(C(=O)/C=C/c2cc(OC)c(OC)cc2OC)cc1 [2,4,5m4′ac] | <1/100 | 1/600 | 1/2000 | <1/100 | 1/600 | 1/2000 | 1/60 | <1/30 | <1/30 |  |  |  |  |  |
| C=CCOc1ccc(C(=O)/C=C/c2c(OC)cc(OC)cc2OC)cc1 [2,4,6m4′ac] | <1/100 | 1/600 | 1/2000 | <1/100 | 1/600 | 1/2000 | 1/200 | 1/120 | <1/30 |  |  |  |  |  |
| COc1ccc(/C=C/C(=O)c2ccccc2O)c(OC)c1 [2,4m2′hc] | <1/100 | <1/100 | <1/100 | <1/100 | <1/100 | <1/100 | <1/60 | <1/60 | <1/60 |  |  |  |  |  |
| COc1ccc(/C=C/C(=O)c2ccccc2)c(OC)c1 [2,4mc] | <1/100 | <1/100 | <1/100 | <1/100 | <1/100 | <1/100 | <1/30 | 1/35 | <1/30 |  |  |  |  |  |
| C=CCOc1ccc(C(=O)/C=C/c2cc(OC)ccc2OC)cc1 [2,5m4′ac] | <1/100 | <1/100 | <1/100 | <1/100 | <1/100 | <1/100 | 1/35 | 1/55 | <1/30 |  |  |  |  |  |
| COc1cccc(OC)c1/C=C/C(=O)c1ccc(O)cc1 [2,6m4′hc] | <1/100 | 1/600 | 1/600 | <1/100 | 1/600 | 1/2000 | 1/150 | 1/300 | 1/80 |  |  |  |  |  |
| O=C(CC(=O)C(F)(F)F)c1cccs1 [2-thenoyltrifluoroacetone, reference compound] |  |  |  |  |  |  |  |  |  | almost completely inhibited |  |  |  |  |
| C=CCOc1ccc(C(=O)/C=C/c2cc(OC)c(OC)c(OC)c2)cc1 [3,4,5m4′ac] | <1/100 | 1/2000 | 1/2000 | <1/100 | 1/600 | 1/2000 | 1/150 | 1/85 | <1/60 |  |  |  |  |  |
| COc1ccc(/C=C/C(=O)c2ccc(O)cc2)cc1OC [3,4m4′hc] | <1/100 | <1/100 | <1/100 | <1/100 | <1/100 | <1/100 | 1/45 | 1/55 | <1/30 |  |  |  |  |  |
| O=C(/C=C/c1ccccc1)c1ccc(O)cc1 [4′-OH, 4′-hydroxychalcone] |  |  |  |  |  |  |  |  |  |  | inconclusive effect | 16 ± 1 µM | 28 ± 1 µM | 21 µM |
| C=CCOc1ccc(C(=O)/C=C/c2ccc(OC)cc2OC)cc1 [24m4′ac, 2,4-dimethoxy-4′allyloxychalcone] |  |  |  |  |  |  |  |  |  |  | No toxic effects |  |  |  |
| COc1ccc(/C=C/C(=O)c2ccc(O)cc2)c(OC)c1 [24m4′hc, 2,4-dimethoxy-4′hydroxychalcone] |  |  |  |  |  |  |  |  |  |  | No toxic effects | 48 ± 3 µM | 71 ± 5 µM | 11 µM |

Source: patent US20030065039A1, “Biologically active 1,3-bis-aromatic-prop-2-en-1-ones, 1,3-bis-aromatic-propan-1-ones, and 1,3-bis-aromatic-prop-2-yn-1-ones” (Statens Serum Institute, priority 1997, published 2003)
